From patent publication US8288410B2, “3-substituted quinolinium and 7H-indolo[2,3-c]quinolinium salts as new antiinfectives” (Florida Agricultural and Mechanical University, priority 2008, dated 2012)
Converted amounts (≈) assume the structure as drawn. Like-named read-outs stand apart in the source and are kept apart here.

What was measured:
[1] = system: Cryptococcus neoformans ATCC 90113; experiment: Antifungal susceptibility testing, Cryptococcus neoformans; assay type: cell-based
Method: (§1) Using standard susceptibility tests, the compounds of the invention were determined to be active against MRSA, C. neoformans and several other bacteria, fungi and protozoa. More specifically, the antibacterial and antifungal testing was carried out in the following manner. Cryptococcus neoformans ATCC 90113 and MRSA were obtained from the American Type Culture Collection (Manassas. Va.). Several others including Candida albicans ATTC 90028, Aspergillus fumigatus ATCC 90906 and Mycobacterium intracellulare (M. intracellulare) ATCC 23086 were also procured. Susceptibility testing was performed using a modified version of the National Committee for Clinical Laboratory Standards method. M. intracellulare was tested using a modified method of Franzblau, et al., J. Clin. Microbiol., 1998, 36, 362-366. DMSO solutions of samples were serially diluted in saline, and transferred in duplicate to 96 well microplates. Microbial suspensions were diluted in the broth to afford desired colony forming units/mL according to the 0.5 McFarland Standard [C. Albicans: either Saboraud Dextrose broth (SDB) or RPMI 1640, C. neoformans: SDB, A fumigatus: either YM broth (for MICS) or RPMI-1640+5% Alamar Blue.] After adding microbial cultures to the sampled afforded a final volume of 200 μL and final test concentration starting with 20 μg/mL, plates were read prior to and after final incubation using either fluorescence at 544ex/590em (M intracellulare, A. fumigatus) using the Polarstar galaxy reader (Biotek Instruments, Vermont). Growth (saline only), solvent and blank (media only) controls were included on each test plate. Drug controls [Ciprofloxacin (ICN Biomedicals, Ohio) for bacteria and Amphotericin B (ICN Biomedicals, Ohio) for fungi] were included in each assay. Percent growth was calculated and plotted versus test concentration to afford IC50 (sample concentration that affords 50% inhibition or growth of the organism). The minimum inhibitory concentration (MIC) was determined by visually inspecting the plate, and is defined as the lowest test concentration that allows no detectable growth (for Almar Blue assays, no color change from blue to pink).

Vero Cells = experiment: Cytotoxicity, Vero cells; assay type: cell-based
[2] = system: Aspergillus fumigatus ATCC 90906; experiment: Antifungal susceptibility testing, Aspergillus fumigatus; assay type: cell-based; details: for IC50: ATCC90906, read-out: A fu IC50
Method: as §1

MRSA = experiment: Antibacterial susceptibility testing, MRSA; assay type: cell-based, methicillin resistant Staphylococcus aureus; details: for IC50 / MFC / MIC: Staphylococcus aureus; for MFC: Table 3, read-out: MRSA MFC; for MRS IC50 / MRS MFC / MRS MIC: Table 1
Method: as §1

[3] = system: Candida albicans ATTC 90028; experiment: Antifungal susceptibility testing, Candida albicans; assay type: cell-based
Method: as §1

Row | SMILES | Cn IC50 ([1]; Table 2) | Cn MFC ([1]; Table 2) | Cn MIC ([1]; Table 2) | TC50 Vero Cells (Vero Cells; Table 2) [µg/mL] | A fu MFC [2] [µg/mL] | A fu MIC [2] [µg/mL] | A fu IC50 ([2]; Table 2, Aspergillus fumigatus) | MRSA IC50 (MRSA; Table 2) | MRSA MFC (MRSA; Table 2) | MRSA MIC (MRSA; Table 2) | Ca IC50 ([3]; Table 2) | Ca MFC ([3]; Table 2) | Ca MIC ([3]; Table 2) | Cn IC50 ([1]; Table 1) [µg/mL] | Cn MFC ([1]; Table 1) [µg/mL] | Cn MIC ([1]; Table 1) [µg/mL] | A fu IC50 ([2]; Table 1, Aspergillus fumigatus) [µg/mL] | Ca IC50 ([3]; Table 1) | Ca MFC ([3]; Table 1) | Ca MIC ([3]; Table 1) | also measured
1 | COc1ccc(N(CCCCCC2CCCCC2)c2cc3ccccc3[n+](C)c2)cc1.[I-] [JRE-3-68-1] | 0.50 µg/mL | 5.0 µg/mL | 1.3 µg/mL | >10 | 10 | 1.3 | 0.80 µg/mL | 0.50 µg/mL | 1.3 µg/mL | 1.3 µg/mL | 0.80 µg/mL | 1.3 µg/mL | 1.3 µg/mL |  |  |  |  |  |  |  | 
2 | C[n+]1cc(N(CCCCCC2CCCCC2)c2ccc(OC(F)(F)F)cc2)cc2ccccc21.[I-] [JRE-3-99-1] | 0.70 µg/mL | 1.3 µg/mL | 1.3 µg/mL | >10 | 2.5 | 2.5 | 0.95 µg/mL | 0.65 µg/mL | 1.3 µg/mL | 1.3 µg/mL | 0.45 µg/mL | 10 µg/mL | 1.3 µg/mL |  |  |  |  |  |  |  | 
3 | Clc1ccc(Nc2cc3ccccc3[n+](CCCCCC3CCCCC3)c2)cc1.[I-] [JRE-2-83-1] | 1.0 µg/mL | — ((-) = >20 μg/mL) | 1.6 µg/mL | 12.5 |  |  | — ((-) = >20 μg/mL) | 0.50 µg/mL | 1.6 µg/mL | 0.78 µg/mL | 2.0 µg/mL | — ((-) = >20 μg/mL) | 25 µg/mL |  |  |  |  |  |  |  | 
4 | C[n+]1cc2c(c3cc(Cl)ccc3n2CCCCCC2CCCCC2)c2ccccc21.[I-] [JRE-3-13-1, 10-Chloro-7-(5-cyclohexyl-pentyl)-5-methyl-7H-indolo[2,3-c]quinolin-5-ium iodide] |  |  |  |  | 25 | 6.3 |  |  |  |  |  |  |  |  |  |  |  |  |  |  | IC50 ([1]; ATCC90113, Table 3, read-out: Cn IC50): 0.9 µg/mL; MFC ([1]; ATCC90113, Table 3, read-out: Cn MFC): 1.6 µg/mL; MIC ([1]; ATCC90113, Table 3, read-out: Cn MIC): 1.6 µg/mL; TC50 Vero Cells (Vero Cells; Table 3): >10 µg/mL; IC50 ([2]; Table 3, Aspergillus fumigatus): 2 µg/mL; IC50 (MRSA; Table 3, read-out: MRSA IC50): 0.5 µg/mL; MFC (MRSA): 0.8 µg/mL; MIC (MRSA; Table 3, read-out: MRSA MIC): 0.8 µg/mL; IC50 ([3]; ATTC90028, Table 3, read-out: Ca IC50): 0.9 µg/mL; MFC ([3]; ATTC90028, Table 3, read-out: Ca MFC): 1.6 µg/mL; MIC ([3]; ATTC90028, Table 3, read-out: Ca MIC): 1.6 µg/mL
5 | C[n+]1cc(N(CCCCCC2CCCCC2)c2ccc3ccccc3c2)cc2ccccc21 [EVK-III-001] |  |  |  | 9.0 | 3.1 | 1.6 |  |  |  |  |  |  |  |  |  |  |  |  |  |  | IC50 ([1]; ATCC90113, Table 2, read-out: Cn IC50): 0.35 µg/mL; MFC ([1]; ATCC90113, Table 2, read-out: Cn MFC): 1.6 µg/mL; MIC ([1]; ATCC90113, Table 2, read-out: Cn MIC): 0.78 µg/mL; IC50 ([2]; Table 2, Aspergillus fumigatus): 0.95 µg/mL; IC50 (MRSA; Table 2, read-out: MRSA IC50): 0.3 µg/mL; MIC (MRSA; Table 2, read-out: MRSA MIC): 0.78 µg/mL; IC50 ([3]; ATTC90028, Table 2, read-out: Ca IC50): 0.2 µg/mL; MFC ([3]; ATTC90028, Table 2, read-out: Ca MFC): 3.1 µg/mL; MIC ([3]; ATTC90028, Table 2, read-out: Ca MIC): 0.39 µg/mL
6 | FC(F)(F)c1ccc2[nH]c3c[n+](CCCCCC4CCCCC4)c4ccccc4c3c2c1.[I-] [JRE-3-4-1] |  |  |  |  |  |  |  |  |  |  |  |  |  |  |  |  |  |  |  |  | Cn IC50 ([1]; Table 3): 9.0 µg/mL; Cn MFC ([1]; Table 3): — ((-) = >20 μg/mL); Cn MIC ([1]; Table 3): — ((-) = >20 μg/mL); TC50 Vero Cells (Vero Cells; Table 3): 10.5 µg/mL; A fu IC50 ([2]; Table 3, Aspergillus fumigatus): 10 µg/mL; MRSA IC50 (MRSA; Table 3): 1.0 µg/mL; MRSA MFC (MRSA; Table 3): 3.1 µg/mL; MRSA MIC (MRSA; Table 3): 1.6 µg/mL; Ca IC50 ([3]; Table 3): 2.0 µg/mL; Ca MFC ([3]; Table 3): 13 µg/mL; Ca MIC ([3]; Table 3): 6.3 µg/mL
7 | C[n+]1cc(N(CCCCCC2CCCCC2)c2ccc(Cl)cc2)cc2ccccc21.[I-] [JRE-4-9-1] | 0.40 µg/mL | 2.5 µg/mL | 0.63 µg/mL | 10 | 10 | 1.3 | 0.80 µg/mL | 0.40 µg/mL | 0.63 µg/mL | 0.63 µg/mL | 0.45 µg/mL | 5.0 µg/mL | 1.3 µg/mL |  |  |  |  |  |  |  | 
8 | FC(F)(F)c1ccc(Sc2cc3ccccc3[n+](CCCCCc3ccccc3)c2)cc1.[I-] [XYZ-III-66] |  |  |  |  |  |  |  |  |  |  |  |  |  | 2.0 | 10 | 5.0 | 3.0 | 5.5 µg/mL | — ((-) = >20 μg/mL) | 10 µg/mL | TC50 Vero Cells (Vero Cells; Table 1): NC (NC = Not toxic at 10 μg/mL); A fu MFC ([2]; Table 1, Aspergillus fumigatus): — ((-) = >20 μg/mL); A fu MIC ([2]; Table 1, Aspergillus fumigatus): 5.0 µg/mL
9 | O=C(O)c1cn(C2CC2)c2cc(N3CCNCC3)c(F)cc2c1=O [Cipro, Ciprofloxacin, reference compound] |  |  |  |  |  |  |  |  |  |  |  |  |  |  |  |  |  |  |  |  | TC50 Vero Cells (Vero Cells; Table 3): >10 µg/mL; IC50 (MRSA; Table 3, read-out: MRSA IC50): 0.09 µg/mL (≈ 0.272 µM); MFC (MRSA): > 20 µg/mL; MIC (MRSA; Table 3, read-out: MRSA MIC): 0.5 µg/mL (≈ 1.51 µM)
10 | C[C@@H]1[C@H](O)[C@@H](C)/C=C/C=C/C=C/C=C/C=C/C=C/C=C/[C@H](O[C@@H]2O[C@H](C)[C@@H](O)[C@H](N)[C@@H]2O)C[C@@H]2O[C@](O)(C[C@@H](O)C[C@@H](O)[C@H](O)CC[C@@H](O)C[C@@H](O)CC(=O)O[C@H]1C)C[C@H](O)[C@H]2C(=O)O [Amph B, Amphotericin B, reference compound] | 0.85 µg/mL | 2.5 µg/mL | 2.5 µg/mL | 6.5 (≈ 7.03 µM) | 2.5 | 2.5 | 0.90 µg/mL |  |  |  | 0.25 µg/mL | 1.3 µg/mL | 0.63 µg/mL | 0.85 | 2.5 | 2.5 | 0.90 | 0.25 µg/mL | 1.3 µg/mL | 0.63 µg/mL | Cn IC50 ([1]; Table 3): 0.85 µg/mL; Cn MFC ([1]; Table 3): 2.5 µg/mL; Cn MIC ([1]; Table 3): 2.5 µg/mL; TC50 Vero Cells (Vero Cells; Table 1): 6.5 µg/mL (≈ 7.03 µM); TC50 Vero Cells (Vero Cells; Table 3): 6.5 µg/mL (≈ 7.03 µM); A fu IC50 ([2]; Table 3, Aspergillus fumigatus): 0.90 µg/mL; Ca IC50 ([3]; Table 3): 0.25 µg/mL; Ca MFC ([3]; Table 3): 1.3 µg/mL; Ca MIC ([3]; Table 3): 0.63 µg/mL
11 | C[n+]1cc(Nc2cccc(Cl)c2)cc2ccccc21.[I-] [JRE-2-81-1] | — ((-) = >20 μg/mL) | — ((-) = >20 μg/mL) | — ((-) = >20 μg/mL) |  |  |  | — ((-) = >20 μg/mL) | — ((-) = >20 μg/mL) | — ((-) = >20 μg/mL) | — ((-) = >20 μg/mL) | — ((-) = >20 μg/mL) | — ((-) = >20 μg/mL) | — ((-) = >20 μg/mL) |  |  |  |  |  |  |  | 
12 | O=C(c1ccc(Cl)cc1)c1cc2ccccc2[n+](CCCCCc2ccccc2)c1.[I-] [XYZ-V-62] |  |  |  |  |  |  |  |  |  |  |  |  |  | 2.0 | 10 | 5.0 | 10 | 7.0 µg/mL | — ((-) = >20 μg/mL) | 10 µg/mL | A fu MFC ([2]; Table 1, Aspergillus fumigatus): — ((-) = >20 μg/mL); A fu MIC ([2]; Table 1, Aspergillus fumigatus): 20 µg/mL; MRS IC50 (MRSA): 0.20 µg/mL; MRS MFC (MRSA): — ((-) = >20 μg/mL); MRS MIC (MRSA): 3.1 µg/mL
13 | Brc1cccc(Sc2cc3ccccc3[n+](CCCCCc3ccccc3)c2)c1.[I-] [XYZ-III-87] |  |  |  |  |  |  |  |  |  |  |  |  |  | 2.0 | 20 | 5.0 | 3.0 | — ((-) = >20 μg/mL) | — ((-) = >20 μg/mL) | — ((-) = >20 μg/mL) | A fu MFC ([2]; Table 1, Aspergillus fumigatus): — ((-) = >20 μg/mL); A fu MIC ([2]; Table 1, Aspergillus fumigatus): 10 µg/mL; MRS IC50 (MRSA): 2.0 µg/mL; MRS MFC (MRSA): 20 µg/mL; MRS MIC (MRSA): 5.0 µg/mL
14 | COc1cccc(Sc2cc3ccccc3[n+](CCCCCc3ccccc3)c2)c1.[I-] [XYZ-IV-20] |  |  |  |  |  |  |  |  |  |  |  |  |  | 1.5 | 10 | 2.5 | 0.55 | 7.0 µg/mL | — ((-) = >20 μg/mL) | 20 µg/mL | A fu MFC ([2]; Table 1, Aspergillus fumigatus): — ((-) = >20 μg/mL); A fu MIC ([2]; Table 1, Aspergillus fumigatus): 1.3 µg/mL; MRS IC50 (MRSA): 0.70 µg/mL; MRS MFC (MRSA): 10 µg/mL; MRS MIC (MRSA): 1.3 µg/mL
